According to ChEMBL document CHEMBL5236615, “Discovery of Novel N-Heterocyclic-Fused Deoxypodophyllotoxin Analogues as Tubulin Polymerization Inhibitors Targeting the Colchicine-Binding Site for Cancer Treatment” (J Med Chem, 2022):
Calls of active or inactive are those of the source. The rule behind the calls is not given here.

Experiments:
HCT-116 = assay: Antiproliferative activity against human HCT-116 cells measured after 72 hrs by MTT assay; type: functional, cell-based; details: HCT-116, 72 h
HT-29 = assay: Antiproliferative activity against human HT-29 cells measured after 72 hrs by MTT assay; type: functional, cell-based; details: HT-29, 72 h
K562 = assay: cells; details: Homo sapiens, K562, 72 h
Description: Antiproliferative activity against human K562 cells measured after 72 hrs by MTT assay

MCF7 = assay: cells; details: Homo sapiens, MCF7, 72 h
Description: Antiproliferative activity against human MCF7 cells measured after 72 hrs by MTT assay

[1] = Metabolic stability in human liver microsomes assessed as intrinsic clearance at 1 uM by LC/MS analysis; type: ADME, Microsome; details: read-out: CLH
[2] = Metabolic stability in human liver microsomes assessed as half life at 1 uM by LC/MS analysis; type: ADME, Microsome
[3] = Toxicity in Balb/c mouse assessed as pathological changes in blood alanine aminotransferase level at 10 mg/kg, ip administered for every 2 days for 14 days; type: organism-based; details: in vivo, 336 h, time 14 day
[4] = Antiproliferative activity against paclitaxel-resistant human A549/TxR cells measured after 72 hrs by MTT assay; type: functional, cell-based
[5] = Antiproliferative activity against paclitaxel-resistant human MCF7/TxR cells measured after 72 hrs by MTT assay; type: functional, cell-based
[6] = Antitumor activity against paclitaxel-resistant human MCF7/TxR cells xenografted in Balb/c mouse assessed as tumor growth inhibition at 10 mg/kg, ip administered for every 2 days for 21 days; type: functional; details: 504 h, time 21 day, read-out: TGI
[7] = Toxicity in Balb/c mouse assessed as pathological changes in blood aspartate aminotransferase level at 10 mg/kg, ip administered for every 2 days for 14 days; type: organism-based; details: in vivo, 336 h, time 14 day
[8] = molecular target: Tubulin beta (Homo sapiens) (UniProt P68371+Q9H4B7+Q13509+P04350+Q3ZCM7+P07437+Q13885+Q9BVA1+Q9BUF5+A6NNZ2); assay: Binding affinity to beta-tubulin colchicine binding site in human MCF-7 cells assessed as inhibition of EBI-beta-tubulin adduct band formation preincubated for 2 hrs followed by EBI addition and measured after 1.5 hrs by EBI competition based Western blotting analysis; type: cell-based; details: MCF7, dose 0.2-25 µM, time 3.5 hrs
Tubulin (Homo sapiens) = Tubulin (Homo sapiens) (UniProt P68371+Q9H4B7+P0DPH7+P68366+Q13509+Q71U36+P04350+Q3ZCM7+P07437+P68363+Q9BQE3+Q6PEY2+Q13885+Q9BVA1+Q9BUF5); assay: Disruption of microtubule network in human MCF7 cells assessed as broken microtubule filaments at 20 nM measured after 6 hrs by immunofluorescence assay; type: cell-based

Compound	IC50 (HCT-116) [nM]	IC50 (HT-29) [nM]	IC50 (K562) [nM]	IC50 (MCF7) [nM]	other results
COc1c(Br)cc([C@H]2c3cc4c(cc3C[C@H]3C(=O)NC(=O)N23)OCCO4)cc1Br	> 5000	> 5000	> 5000	> 5000	
O=C1NC(=O)N2[C@H](c3cc(Cl)c(F)c(Cl)c3)c3cc4c(cc3C[C@@H]12)OCCO4	22.9	23.2	49	48.8	CLint scaled at 1 µM [1]: 121 mL/min/kg; half-life at 1 µM [2]: 14.4 min
COc1cc([C@@H]2c3cc4c(cc3C[C@H]3COC(=O)[C@@H]32)OCO4)cc(OC)c1OC [DESOXYPODOPHYLLOTOXIN]	14.5	16.6	16	6	CLint scaled at 1 µM [1]: 1440 mL/min/kg; half-life at 1 µM [2]: 1.12 min
COc1cc([C@@H]2c3cc4c(cc3C[C@H]3C(=O)NC(=O)N23)OCCO4)cc(F)c1OC	20.1	26.3	29.5	21.9	
COc1ccc([C@@H]2c3cc4c(cc3C[C@H]3COC(=O)N32)OCO4)cc1OC	> 5000	755	593	> 5000	
CC(=O)O[C@H]1C(=O)[C@@]2(C)[C@H]([C@H](OC(=O)c3ccccc3)[C@]3(O)C[C@H](OC(=O)[C@H](O)[C@@H](NC(=O)c4ccccc4)c4ccccc4)C(C)=C1C3(C)C)[C@]1(OC(C)=O)CO[C@@H]1C[C@@H]2O [PACLITAXEL]	62.9	10.8	29.6	19.7	Activity [3]: Toxic; IC50 [4]: 1670 nM; IC50 [5]: 2750 nM; inhibition in vivo at 10 mg/kg [6]: 28.6%; Activity [7]: Toxic
COc1cc([C@@H]2c3cc4c(cc3C[C@H]3COC(=O)N32)OCCO4)ccc1F	273	63.4	154	376	
COc1cc([C@@H]2c3cc4c(cc3C[C@H]3COC(=O)N32)OCO4)ccn1	> 5000	> 5000	> 5000	> 5000	
COc1cc([C@@H]2c3cc4c(cc3C[C@H]3C(=O)NC(=O)N23)OCCO4)cc(OC)c1OC	27.2	21.4	31.9	16.9	CLint scaled at 1 µM [1]: 81.2 mL/min/kg; half-life at 1 µM [2]: 21.4 min
COc1cc([C@@H]2c3cc4c(cc3C[C@H]3COC(=O)N32)OCCCO4)cc2c1OCO2	137	611	193	965	
CCN1C(=O)[C@@H]2Cc3cc4c(cc3[C@@H](c3cc(OC)c(OC)c(OC)c3)N2C1=S)OCCO4	> 5000	> 5000	> 5000	> 5000	
COc1cc([C@@H]2c3cc4c(cc3C[C@H]3COC(=O)N32)OCCO4)cc(OC)c1Br	103	48.4	39.5	37.5	
COc1cc([C@@H]2c3cc4c(cc3C[C@H]3COC(=O)N32)OCO4)cc(OC)c1O	> 5000	> 5000	> 5000	> 5000	
COc1cc([C@@H]2c3cc4c(cc3C[C@H]3C(=O)NCC(=O)N23)OCCO4)cc(OC)c1OC	3120	749	785	1560	
COc1c(Cl)cc([C@@H]2c3cc4c(cc3C[C@H]3COC(=O)N32)OCCO4)cc1Cl	5.8	6	6.3	5.9	CLint scaled at 1 µM [1]: 589 mL/min/kg; half-life at 1 µM [2]: 2.95 min
COc1cc([C@@H]2c3cc4c(cc3C[C@H]3C(=O)NC(=O)N23)OCCO4)cc([N+](=O)[O-])c1OC	31.6	49.9	53.4	40.7	
O=C1OC[C@@H]2Cc3cc4c(cc3[C@@H](c3ccc(OC(F)F)c(OC(F)F)c3)N12)OCCO4	918	74.8	316	265	
CCN1C(=O)[C@@H]2Cc3cc4c(cc3[C@@H](c3cc(OC)c(OC)c(OC)c3)N2C1=O)OCCO4	> 5000	> 5000	> 5000	> 5000	
COc1cc([C@@H]2c3cc4c(cc3C[C@H]3C(=O)NC(=O)N23)OCCO4)cc2c1OCO2	46.9	74.8	91.7	36.2	
COc1cc([C@@H]2c3cc4c(cc3C[C@H]3COC(=O)N32)OCCO4)cc(OC)c1OC	6.8	14.9	17.1	17.3	CLint scaled at 1 µM [1]: 794 mL/min/kg; half-life at 1 µM [2]: 2.19 min

Compound	IC50 (HCT-116) [nM]	IC50 (HT-29) [nM]	IC50 (K562) [nM]	IC50 (MCF7) [nM]	other results
COc1cc([C@@H]2c3cc4c(cc3C[C@H]3C(=O)NCC(=O)N23)OCO4)cc(OC)c1OC	1240	1920	789	2330	
COc1ccc(/C=C\c2cc(OC)c(OC)c(OC)c2)cc1O [COMBRETASTATIN A4]	6.8	391	11.2	5.9	Activity [8]: Dose-Dependent Effect; IC50 [4]: 49.9 nM; IC50 [5]: 15.4 nM; Activity (Tubulin (Homo sapiens)): Active
COc1cc([C@@H]2c3cc4c(cc3C[C@H]3COC(=O)N32)OCCCO4)cc(OC)c1OC	119	81.9	107	58.8	
CCN1C(=O)[C@@H]2Cc3cc4c(cc3[C@@H](c3cc(OC)c(OC)c(OC)c3)N2C1=O)OCO4	> 5000	> 5000	> 5000	> 5000	
O=C1OC[C@@H]2Cc3cc4c(cc3[C@@H](c3cc(C(F)(F)F)cc(C(F)(F)F)c3)N12)OCCO4	312	56.8	202	100	
COc1cc([C@@H]2c3cc4c(cc3C[C@H]3C(=O)N(C)C(=S)N23)OCCO4)cc(OC)c1OC	> 5000	> 5000	> 5000	> 5000	
COc1c(Br)cc([C@@H]2c3cc4c(cc3C[C@H]3COC(=O)N32)OCCO4)cc1Br	3.3	2.4	6.7	4.3	CLint scaled at 1 µM [1]: 1370 mL/min/kg; half-life at 1 µM [2]: 1.27 min
COc1cc([C@@H]2c3cc4c(cc3C[C@H]3COC(=O)N32)OCCO4)cc2c1OCO2	50.9	44.3	29.6	35.4	
CCCN1CC(=O)N2[C@H](c3cc(OC)c(OC)c(OC)c3)c3cc4c(cc3C[C@H]2C1=O)OCCO4	> 5000	> 5000	> 5000	> 5000	
COc1cc([C@@H]2c3cc4c(cc3C[C@H]3C(=O)N(C)C(=S)N23)OCO4)cc(OC)c1OC	> 5000	> 5000	> 5000	> 5000	
COc1cc([C@@H]2c3cc4c(cc3C[C@H]3COC(=O)N32)OCO4)cc(OC)c1OC	16.6	26.7	20	33.6	
COc1cc([C@@H]2c3cc4c(cc3C[C@H]3COC(=O)N32)OCO4)cc2c1OCO2	56.6	212	72.3	149	
CCCN1CC(=O)N2[C@H](c3cc(OC)c(OC)c(OC)c3)c3cc4c(cc3C[C@H]2C1=O)OCO4	> 5000	> 5000	> 5000	> 5000	
COc1cc([C@@H]2c3cc4c(cc3C[C@H]3C(=O)NC(=O)N23)OCO4)cc(OC)c1OC	64.3	49.1	44.9	125	
O=C1NC(=O)N2[C@H](c3cc(Cl)nc(Cl)c3)c3cc4c(cc3C[C@@H]12)OCCO4	533	357	424	400	
COc1cc2c(cc1OC)[C@@H](c1cc(OC)c(OC)c(OC)c1)N1C(=O)OC[C@@H]1C2	> 5000	> 5000	> 5000	> 5000	
CCN1C(=O)[C@@H]2Cc3cc4c(cc3[C@@H](c3cc(OC)c(OC)c(OC)c3)N2C1=S)OCO4	> 5000	> 5000	> 5000	> 5000	
COc1cc([C@@H]2c3cc4c(cc3C[C@H]3COC(=O)N32)OCCO4)cc(F)c1OC	10.1	18.2	13.4	11.4	
O=C1OC[C@@H]2Cc3cc4c(cc3[C@@H](c3ccncc3)N12)OCO4	> 5000	> 5000	> 5000	> 5000	
